Tests used:
Test in all cases: relative viability (nuclei count vs DMSO), 5 days (fraction); higher = more cells survive
[1] = compound: Nc1nc(Nc2ccc3c(c2)CC[C@@H](N2CCCC2)CC3)nn1-c1cc2c(nn1)-c1ccccc1CCC2 [Bemcentinib] + CS(=O)(=O)CCNCc1ccc(-c2ccc3ncnc(Nc4ccc(OCc5cccc(F)c5)c(Cl)c4)c3c2)o1 [Lapatinib] (partner 2 µM)
How it was run: (§1)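 Lung cancer cell lines in 1536-well plates were dosed by pin tool the day after seeding, either with one drug alone or with a fixed anchor-drug dose plus five library-drug doses (not always all listed) in √10 steps. After 5 days, cells were fixed and their nuclei stained in one step (final 0.05% Triton X-100, 1% formaldehyde, 1 ug/ml Hoechst), then counted on 4× images. Relative viability is the nuclei count in treated wells divided by that in vehicle wells. Values are medians of duplicate plates.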

[2] = compound: Nc1nc(Nc2ccc3c(c2)CC[C@@H](N2CCCC2)CC3)nn1-c1cc2c(nn1)-c1ccccc1CCC2 [Bemcentinib] + Nc1nc2[nH]cc(CCc3ccc(C(=O)N[C@@H](CCC(=O)O)C(=O)O)cc3)c2c(=O)[nH]1 [Pemetrexed] (partner 0.2 µM)
How it was run: as §1

[3] = compound: CC1=CC=C(C=C1)C(=O)CN2C3=C(CCCC3)SC2=N [Pifithrin_alpha] + C[C@]1(O)C[C@@H](c2nc(-c3ccc4ccc(-c5ccccc5)nc4c3)c3c(N)nccn32)C1 [Linsitinib] (partner 1 µM)
How it was run: as §1

[4] = compound: Nc1nc(Nc2ccc3c(c2)CC[C@@H](N2CCCC2)CC3)nn1-c1cc2c(nn1)-c1ccccc1CCC2 [Bemcentinib] + CC(=O)c1c(C)c2cnc(Nc3ccc(N4CCNCC4)cn3)nc2n(C2CCCC2)c1=O [Palbociclib] (partner 0.5 µM)
How it was run: as §1

NCI-H650
relative viability ([1]; first compound 0.04 µM): 0.885 | relative viability ([1]; first compound 0.1265 µM): 1.02 | relative viability ([1]; first compound 0.4 µM): 0.906 | relative viability ([1]; first compound 1.265 µM): 0.759 | relative viability ([1]; first compound 4 µM): 0.775 | relative viability ([2]; first compound 0.04 µM): 0.843 | relative viability ([2]; first compound 0.1265 µM): 1.06 | relative viability ([2]; first compound 0.4 µM): 1.09 | relative viability ([2]; first compound 1.265 µM): 0.941 | relative viability ([2]; first compound 4 µM): 1.01 | relative viability ([3]; first compound 3.162 µM): 1 | relative viability ([3]; first compound 10 µM): 0.778 | relative viability ([3]; first compound 31.62 µM): 0.524 | relative viability ([3]; first compound 100 µM): 0.807 | relative viability ([4]; first compound 0.04 µM): 0.337 | relative viability ([4]; first compound 0.1265 µM): 0.298 | relative viability ([4]; first compound 0.4 µM): 0.338 | relative viability ([4]; first compound 1.265 µM): 0.333 | relative viability ([4]; first compound 4 µM): 0.298

From the supplement of paper PMC10307832
